# Data taken from article PMC6290556, “1,4-Disubstituted Thiosemicarbazide Derivatives are Potent Inhibitors of Toxoplasma gondii Proliferation” (Molecules, 2014).
# How the values were obtained:
# [1] = biological target: bacterial topoisomerase IV; parameters: method as in PMID 21080016; conditions: cited from earlier work
# [2] = test system: T. gondii RH strain tachyzoites; assay: [3H]uracil incorporation assay of T. gondii proliferation in L929 host cells; format: cell-based, Toxoplasma gondii; conditions: assay A [3H]uracil incorporation, vs untreated blank
# Experimental: In the next step of our studies, the prepared 1,4-disubstituted thiosemicarbazides (series 1–3) were used to assess the inhibition of T. gondii growth in vitro. For this purpose, intracellular parasites (tachyzoites) of RH strain were incubated with different concentrations of the thiosemicarbazides ranging from 1 to 100 µg/mL. Inhibition of the parasite growth was monitored by measuring the specific incorporation of [^3H]uracil in the parasite’s nucleic acids.
# The tachyzoites of T. gondii strain RH – intraspecies type I (ATCC_ Number 50174™) were maintained through passages on female C57BL/6 (H-2^b) and BALB/c (H-2^d) mice with genetically determined high and low susceptibility (respectively) to T. gondii infection (10–12 weeks old). Tachyzoites washed out from the peritoneum cavity were once expanded in vitro on L929 cells.
# L929, (2 × 10^4 cells/100 µL/well) were grown in complete medium (IMDM) on 96-well plates. After 24 h incubation, a medium was removed and then T. gondii RH tachyzoites, suspended in culture medium supplemented with 1.0, 5.0, 10.0, 50.0 and 100.0 μg/mL 1,4-disubstituted thiosemicarbazides (1g, 2b, 2m, 3d, 3l) and as a control-sulfadiazine, were added (2 × 10^5 tachyzoites/200 µL/well) to the cell monolayers. After subsequent 48 h incubation 1 µCi/well of [^3H] uracil (Moravek Biochemicals Inc., Brea, CA, USA) was applied to each microculture for further 18–20 h. The amount of the isotope incorporated into the parasite nucleic acid pool, corresponding to the parasite growth, was measured by liquid scintillation counting with 1450 Microbeta Plus Liquid Scintillation Counter (Wallac Oy, Turku, Finland).
# [3] = MTT cell viability assay (ISO 10993-5); format: cell-based, mouse; conditions: mouse, L929 mouse fibroblast cells, 24 h, ± SD
# Experimental: (§1) Cell line L929 (ATTC® Catalog No. […] The MTT assay was used according to international standards: ISO 10993-5:2009(E), Biological evaluation of medical devices, Part 5: Tests for in vitro cytotoxicity. […] Then, 1 mg/mL MTT (50 μL/well) was added to each well and incubated at 37 °C, 10% CO2 for 2 h. Mitochondrial dehydrogenases of viable cells reduced the yellowish water-soluble MTT to water-insoluble formazan crystals, which were solubilized with dimethyl sulfoxide (DMSO). The cell culture medium was aspirated cautiously, after which 150 μL DMSO was added to each well and mixed thoroughly. Optical density (OD) was read on the ELISA reader (Multiskan EX, Labsystems, Vienna, VA, USA) at 550 nm. […] All experiments were performed in triplicate.
# L929 cells = assay: MTT cell viability assay (ISO 10993-5); format: cell-based, mouse; conditions: L929 cells
# Experimental: as §1
# T. gondii RH strain = assay: quantitative real-time PCR (B1 gene) of T. gondii in infected L929 cells; format: cell-based, Toxoplasma gondii; conditions: assay B qRT-PCR, L929 host cells
# Experimental: T. gondii genomic DNA was isolated from the tachyzoites of RH strain with Wizard® SV Genomic DNA Purification System (Promega, Madison, WI, USA) according to the manufacturer’s instruction. The DNA concentration and purity were measured using a NanoPhotometer (Implen, München, Germany), while the integrity of the extracted DNA was tested using an ethidium bromide-stained agarose gel. DNA was used for the detection and quantitationof T. gondii in analyzed samples and it was stored at −20 °C until use.
# A quantitative real-time PCR (qRT-PCR) assay, targeting B1 gene was performed to detect and to quantitate T. gondii in analyzed samples (1g, 2b, 2m, 3d, 3l and sulphadiazine) according to the modified protocol of Wahab et al.. […] Amplification was carried out on a 7900HT real-time PCR system (Applied Biosystems, Carlsbad, CA, USA). The reaction mixtures (25 µL) consisted of 1x TaqMan PCR master mix supplemented with ROX (Applied Biosystems), 300 nM probe, 900 nM of each primer and 2 µL of template DNA. For quantification a standard curve was constructed using 10-fold serial dilutions of DNA extracted from a known number of T. gondii. The cycling parameters were: 50 °C for 2 min, initial activation at 95 °C for 10 min, and 45 two-step cycles of 95 °C for 15 s and 60 °C for 1 min. All samples were analyzed in triplicate.
# [4] = test system: T. gondii RH strain tachyzoites; assay: [3H]uracil incorporation assay of T. gondii proliferation in L929 host cells; format: cell-based; conditions: Toxoplasma gondii, L929, read-out: IC50 (50% of T. gondii proliferation inhibition in vitro)
# [5] = test system: Gram-positive bacterial species and clinical isolates of Staphylococcus aureus; parameters: method as in PMID 23428849; conditions: all test microorganisms; cited from earlier work
# infected cells = test system: infected cells; parameters: method as in PMID 20541294; conditions: read-out: LC50 for infected cells; cited from earlier work
SMILES,IC50 [1],intensity of T. gondii proliferation ([2]; 1 µg/mL),intensity of T. gondii proliferation ([2]; 5 µg/mL),intensity of T. gondii proliferation ([2]; 10 µg/mL),intensity of T. gondii proliferation ([2]; 50 µg/mL),intensity of T. gondii proliferation ([2]; 100 µg/mL),"viability at 24 h, 1 µg/mL [3]","viability at 24 h, 5 µg/mL [3]","viability at 24 h, 10 µg/mL [3]","viability at 24 h, 50 µg/mL [3]","viability at 24 h, 100 µg/mL [3]","viability at 24 h, 500 µg/mL [3]",CC30 (concentration required for 30% proliferation inhibition in vitro) (L929 cells),intensity of T. gondii proliferation (T. gondii RH strain; 50 µg/mL),intensity of T. gondii proliferation (T. gondii RH strain; 100 µg/mL),IC50 [4],antibacterial screening [5],CC50 (infected cells)
Cc1nc[nH]c1C(=O)NNC(=S)NC(=O)c1ccccc1 [4-benzoyl-1-(4-methyl-imidazol-5-yl)carbonylthiosemicarbazide],90 µg/mL,,,,,,,,,,,,,,,,,
O=C(NC(=S)NNC(=O)c1cc2ccccc2[nH]1)c1ccccc1 [4-benzoyl-1-(indol-2-yl)carbonyl-thiosemicarbazide],14 µg/mL,,,,,,,,,,,,,,,,,
Cc1nnsc1C(=O)NNC(=S)Nc1ccccc1Br [Compound 3d],,90.03 ± 14.61%,84.64 ± 15.68%,83.84 ± 19.01%,63.82 ± 5.32 %,36.52 ± 5.16 %,102 ± 3.89%,99.14 ± 0.82%,97.5 ± 5.98%,90.9 ± 6.71%,79.5 ± 5.82%,41.5 ± 5.16%,242.56 µg/mL,75.13 ± 10.10 %,25.56 ± 6.32 %,74.9 µg/mL,ineffective,
Cc1nnsc1C(=O)NNC(=S)Nc1ccc(F)cc1F [Compound 3l],,84.59 ± 16.61%,85.76 ± 19.71%,103.21 ± 19.27%,88.34 ± 14.40 %,37.20 ± 7.47 %,96.54 ± 0.69%,92.87 ± 0.23%,95.89 ± 0.39%,99 ± 10%,89.5 ± 3.44%,48 ± 10.1%,285.52 µg/mL,89.32 ± 15.74 %,14.08 ± 3.35 %,92.3 µg/mL,ineffective,
NC(=O)NO [hydroxyurea],,,,,,,,,,,,,,,,,,> 10 mM
"Nc1ccc(S(=O)(=O)Nc2ncccn2)cc1 [sulfadiazine, reference compound]",,,,,,,,,,,,,,,63.99 ± 10.58 %,> 500 µg/mL,,> 10 mM
